Test results from US8716528B2, “Aryloxy amine compounds and their use as sodium channel modulators” (Howard Florey Institute, priority 2007, dated 2014).
Values joined by “and” are separate entries in the source; they are usually repeats but may differ in a detail not shown here. Equal values may be shown once. “Also recorded” adds a separate entry of the source. Marks after values point to notes of the source that are not given here.

Columns and labels:
[1] = target: Sodium Channel Binding Site 2 in Rat Brain Membranes; details: 3H-batrachotoxinin 5 nM, 37° C. 60 minutes, read-out: IC50 (inhibition of specific binding of 3H-batrachotoxinin)
[2] = test system: Male Sprague-Dawley rats, L5 nerve ligated and cut; assay: Rat L5 nerve cut model of neuropathic pain, Von Frey filament withdrawal threshold (allodynia); format: in vivo; details: for grams of force needed to withdraw left limb: left hind paw, nerve cut; for grams of force needed to withdraw left limb / grams of force needed to withdraw right limb: individual rats #17-#20; for effect on allodynia: left paw, 4 rats; for grams of force needed to withdraw right limb: right hind paw, nerve intact
Experimental: The following method is based on the method published by Chaplan et al, 1994. Male Sprague-Dawley rats from one litter were weaned when 19 days old and acclimatized for the next two days in the Animal House where the experiment was to be carried out. From days 21 to 25, rats were tested using a set of Von Frey monofilaments to test the mechanical withdrawal threshold of the hindpaws. The monofilaments were applied in increasing force until the rat withdrew the hind paw being tested. […] Rats were anaesthetized with a halothane/oxygen (5:95) gas mixture and a dorsal midline incision was made on the rat's lower back to expose the left lumbar region either side of the hip. Bone was clipped away to expose the L4 and L5 nerves distal to their emergence from the intervertebral foramina. The L5 nerve was then isolated using a glass hook, ligated and cut on the peripheral side of the ligation. The incision was then closed with suture threads and the anaesthetic gas discontinued. The next day rats underwent testing with the graded Von Frey filaments to the hind paws to determine if allodynia was present in the left paw as compared to the right hind paw. Testing was repeated on these rats until they were 28 days old. […] Rats were then tested with graded Von Frey filaments at 45 minutes and 90 minutes after injection in order to determine if allodynia had been blocked.

[3] = test system: Male Hooded Wistar rats, spinal cord injury (SCI); assay: Reversible spinal cord injury model: percentage of white and gray matter spared at the epicentre (H & E, Luxol Fast blue, cresyl violet); format: in vivo, rat
Experimental: (§1) Male Hooded Wistar rats were anesthetized (2% isoflurane/98% oxygen), and laminectomy performed at spinal level T12. An inflatable balloon catheter was inserted rostral, underneath the vertebra, to T10 and inflated for 5 minutes, causing reversible paraplegia (Feldblum, et al., 2000). […] Rats had almost complete functional recovery by 15 d. Compound 1 (15 nmol/g and 60 nmol/g), mexiletine (60 nmol/g) and vehicle (5 ml/kg) were administered i.p, at 3 h after the injury and twice daily thereafter, until killed. Behavioural tests were conducted every 3 days. At 15 d post-injury, rats were anesthetized and transcardially perfused, to fix the spinal cords. Sections were cut and processed to examine the size of the cyst and modulatory effects of treatments or control on lesion formation.
(§2) Volume of damage: Effects of treatment were measured first from H & E stained sections. […] Data are mean±SEM of measurements from n=4 rats per treatment group. Secondly, the sparing of spinal cord tissue by Compound 1 and mexiletine treatment was assessed by more detailed histological staining techniques.

[4] = test system: Male Hooded Wistar rats, spinal cord injury (SCI); assay: Reversible spinal cord injury model: volume of damage from H & E stained sections; format: in vivo, rat; details: equivalent mole dose, compared to SCI+saline, n=4
Experimental: as §1, §2

[5] = test system: Male Hooded Wistar rats, spinal cord injury (SCI); assay: Reversible spinal cord injury model: BBB open-field locomotor score; format: in vivo, rat; details: i.p. 3 h after injury and twice daily, 15 days; versus vehicle treated controls
Experimental: as §1
BBB scale: Effects of Compound 1 and mexiletine treatment on the time course of functional recovery, following SCI, assessed with the BBB open-field locomotor score. […] Each rat acted as its own control, and results after SCI compared with pre-injury scores (0 h after SCI). Data are mean±SEM. ANOVA followed by Bonferroni post-test: [F(24,273)=10.57, P<0.0001], *P<0.05, **P<0.01, ***P<0.001 Compound 1 (60 nmol/g) versus the SCI+saline controls at the same time; †P<0.05 Compound 1 (15 nmol/g) or mexiletine (60 nmol/g) versus SCI+saline controls at the same time.

[6] = test system: Male Hooded Wistar rats, spinal cord injury (SCI); assay: Reversible spinal cord injury model: neuronal cell body counts by NeuN immunostaining; format: in vivo, rat; details: for loss of white matter and gray matter (rostro-caudal serial sections, neuronal cell body counts): after SCI, versus saline treatment
Experimental: as §1, §2

[7] = test system: Male Hooded Wistar rats, spinal cord injury (SCI); assay: Reversible spinal cord injury model: horizontal ladder test; format: in vivo, rat; details: versus SCI+saline controls at the same time
Experimental: as §1
Ladder test: In the horizontal ladder test, rats are placed onto a beam which is randomly missing rungs, this prevents rats from adapting and compensating for any deficits following SCI. […] The results are depicted in FIG. 4. […] Data is expressed as the percentage of foot misplacements made of the total number of steps taken, using a combined score for both hindlimbs. […] Each rat acted as its own control, and results compared with pre-injury scores (0 h after SCI). […]

[8] = test system: Male Hooded Wistar rats, spinal cord injury (SCI); assay: Reversible spinal cord injury model: ledged beam task; format: in vivo, rat; details: for use of the support ledge, ledged beam task: after SCI, versus saline-treated controls
Experimental: as §1
Ledged beam: Effects of Compound 1 and mexiletine, and SCI+saline controls on recovery of function following spinal cord compression injury as assessed by the number of steps using the support ledge on the ledged beam task. The results are depicted in FIG. 5. Sham-SCI rats walked the length of the ledged beam with approximately 10% of steps made on the supporting ledge. […] Data is expressed as ledge use/errors made as a percentage of total steps taken with both hindlimbs after SCI. Each rat acted as its own control, and results compared with pre-injury scores (0 h after SCI). ANOVA followed by Bonferroni post-test: [F(24,273)=5.12, P<0.0001], *P<0.05, **P<0.01, ***P<0.001 Compound 1 (60 nmol/g) versus the SCI+saline controls at the same time; †P<0.05 Compound 1 (15 nmol/g) versus SCI+saline controls at the same time. […] Data are mean±SEM. n=6-11 rats in each group.

[9] = +0.5 mm from epicentre, 60 nmol/g
[10] = +1 mm from epicentre, 60 nmol/g
[11] = +1.5 mm from epicentre, 60 nmol/g
[12] = +2 mm from epicentre, 60 nmol/g
[13] = +2.5 mm from epicentre, 60 nmol/g
[14] = −0.5 mm from epicentre, 60 nmol/g
[15] = −1 mm from epicentre, 60 nmol/g
[16] = −1.5 mm from epicentre, 60 nmol/g
[17] = −2 mm from epicentre, 60 nmol/g
[18] = −2.5 mm from epicentre, 60 nmol/g

## Cc1cccc(C)c1OCCCNCc1ccc(N2N=CC(C)C2=O)cc1 (stereo not shown) [Comparative A, reference compound]
[1]
  IC50: 11000 nM

## Cc1cccc(C)c1OCC(C)NCc1cc(C(C)(C)C)c(O)c(C(C)(C)C)c1 (stereo not shown) [Compound 1]
[2]; 45 min post i.p. 70 nmol/g
  grams of force needed to withdraw left limb: 11.44 g and 17.8 g (3×)
  grams of force needed to withdraw right limb: 17.8 g
[2]; 90 min post i.p. 70 nmol/g
  grams of force needed to withdraw left limb: 3.7 g and 10.9 g and 17.8 g (2×)
  grams of force needed to withdraw right limb: 17.8 g
[2]; 45 minutes after i.p. 70 nmol/g
  effect on allodynia: allodynia had been completely eliminated in 3 of the rats
[2]; 90 minutes after i.p. 70 nmol/g
  effect on allodynia: allodynia had still been eliminated in 2 rats
[2]; right hindpaw, 45 or 90 minutes after injection
  generalized anaesthesia (response of right hindpaw to filaments): did not cause a generalized anaesthesia
[3]; 15 nmol/g
  GRAY MATTER spared, % MEAN: 80* %
  TOTAL TISSUE spared, % MEAN: 74.3* %
  WHITE MATTER spared, % MEAN: 63.6* %
[3]; 60 nmol/g
  GRAY MATTER spared, % MEAN: 88.9* %
  TOTAL TISSUE spared, % MEAN: 83.9* %
  WHITE MATTER spared, % MEAN: 81.1* %
[4]
  volume of damage (H & E stained sections): reduced damage compared to SCI+saline
[5]
  rate of functional recovery following SCI, BBB open-field locomotor score: significantly increased the rate of recovery
[6]; 0.0 mm (epicentre), 15 nmol/g
  No. of motor neurons Per sq mm, Mean: 9* Per sq mm
[6]; 0.0 mm (epicentre), 60 nmol/g
  No. of motor neurons Per sq mm, Mean: 15* Per sq mm
[6]; +0.5 mm from epicentre, 15 nmol/g
  No. of motor neurons Per sq mm, Mean: 10* Per sq mm
[6]; [9]
  No. of motor neurons Per sq mm, Mean: 16* Per sq mm
[6]; +1 mm from epicentre, 15 nmol/g
  No. of motor neurons Per sq mm, Mean: 14* Per sq mm
[6]; [10]
  No. of motor neurons Per sq mm, Mean: 22* Per sq mm
[6]; +1.5 mm from epicentre, 15 nmol/g
  No. of motor neurons Per sq mm, Mean: 25* Per sq mm
[6]; [11]
  No. of motor neurons Per sq mm, Mean: 29* Per sq mm
[6]; +2 mm from epicentre, 15 nmol/g
  No. of motor neurons Per sq mm, Mean: 28 Per sq mm
[6]; [12]
  No. of motor neurons Per sq mm, Mean: 28 Per sq mm
[6]; +2.5 mm from epicentre, 15 nmol/g
  No. of motor neurons Per sq mm, Mean: 29 Per sq mm
[6]; [13]
  No. of motor neurons Per sq mm, Mean: 30 Per sq mm
[6]
  loss of white matter and gray matter (rostro-caudal serial sections, neuronal cell body counts): reduced loss of both white matter and gray matter; also recorded: more effective than Mexiletine
[6]; −0.5 mm from epicentre, 15 nmol/g
  No. of motor neurons Per sq mm, Mean: 11* Per sq mm
[6]; [14]
  No. of motor neurons Per sq mm, Mean: 17* Per sq mm
[6]; −1 mm from epicentre, 15 nmol/g
  No. of motor neurons Per sq mm, Mean: 18* Per sq mm
[6]; [15]
  No. of motor neurons Per sq mm, Mean: 23* Per sq mm
[6]; −1.5 mm from epicentre, 15 nmol/g
  No. of motor neurons Per sq mm, Mean: 26 Per sq mm
[6]; [16]
  No. of motor neurons Per sq mm, Mean: 26 Per sq mm
[6]; −2 mm from epicentre, 15 nmol/g
  No. of motor neurons Per sq mm, Mean: 29 Per sq mm
[6]; [17]
  No. of motor neurons Per sq mm, Mean: 30 Per sq mm
[6]; −2.5 mm from epicentre, 15 nmol/g
  No. of motor neurons Per sq mm, Mean: 27 Per sq mm
[6]; [18]
  No. of motor neurons Per sq mm, Mean: 30 Per sq mm
[7]
  number of hind-limb foot misplacements, horizontal ladder test: decreased the number of hind-limb foot misplacements
[8]
  use of the support ledge, ledged beam task: significantly reduced
[1]
  IC50: 134 nM

## CC(C)(C)c1cc(CNCCCOc2c(Cl)cccc2Cl)cc(C(C)(C)C)c1O [Compound 2]
[1]
  IC50: 105 nM

## COc1cccc(OC)c1OCCCNCc1cc(C(C)(C)C)c(O)c(C(C)(C)C)c1 [Compound 3]
[1]
  IC50: 107 nM

## CC(C)c1cccc(C(C)C)c1OCCCNCc1cc(C(C)(C)C)c(O)c(C(C)(C)C)c1 [Compound 4]
[1]
  IC50: 90 nM

## CC(C)c1cncc(C(C)C)c1OCCCNCc1cc(C(C)(C)C)c(O)c(C(C)(C)C)c1 [Compound 5]
[1]
  IC50: 380 nM

## CC(C)(C)c1cc(CNCCCOc2ccccc2)cc(C(C)(C)C)c1O [Compound 6]
[1]
  IC50: 236 nM

## CC(C)(C)c1cc(CNCCCOc2ccncc2)cc(C(C)(C)C)c1O [Compound 7]
[1]
  IC50: 870 nM

## Cc1cccc(C)c1OCCCNCc1cc(C(C)(C)C)c(O)c(C(C)(C)C)c1 [Compound 8]
[1]
  IC50: 179 nM

## Cc1cccc(C)c1OCC(C)N (stereo not shown) [Mexiletine, mexiletine, reference compound]
[3]; 60 nmol/g
  GRAY MATTER spared, % MEAN: 77.9* %
  TOTAL TISSUE spared, % MEAN: 70.5* %
  WHITE MATTER spared, % MEAN: 66.3* %
[4]
  volume of damage (H & E stained sections): reduced damage compared to SCI+saline
[5]
  rate of functional recovery following SCI, BBB open-field locomotor score: significantly increased the rate of recovery
[6]; 0.0 mm (epicentre), 60 nmol/g
  No. of motor neurons Per sq mm, Mean: 7* Per sq mm
[6]; [9]
  No. of motor neurons Per sq mm, Mean: 10* Per sq mm
[6]; [10]
  No. of motor neurons Per sq mm, Mean: 17* Per sq mm
[6]; [11]
  No. of motor neurons Per sq mm, Mean: 24* Per sq mm
[6]; [12]
  No. of motor neurons Per sq mm, Mean: 30 Per sq mm
[6]; [13]
  No. of motor neurons Per sq mm, Mean: 27 Per sq mm
[6]
  loss of white matter and gray matter (rostro-caudal serial sections, neuronal cell body counts): reduced loss of both white matter and gray matter
[6]; [14]
  No. of motor neurons Per sq mm, Mean: 11* Per sq mm
[6]; [15]
  No. of motor neurons Per sq mm, Mean: 17* Per sq mm
[6]; [16]
  No. of motor neurons Per sq mm, Mean: 26 Per sq mm
[6]; [17]
  No. of motor neurons Per sq mm, Mean: 33 Per sq mm
[6]; [18]
  No. of motor neurons Per sq mm, Mean: 31 Per sq mm
[7]
  number of hind-limb foot misplacements, horizontal ladder test: decreased the number of hind-limb foot misplacements
[8]; 60 nmol/g, Bonferroni post-test
  ledge use, statistical difference from SCI+saline: no significant difference from SCI+saline at any time
[8]
  use of the support ledge, ledged beam task: significantly reduced
[1]
  IC50: 11000 nM
